# Results taken from patent US5066655A (priority 1989, dated 1991).
# How the values were obtained:
# [1] = target: T1, A1 receptors (Rattus norvegicus, UniProt P25099); assay: Activity at A1 adenosine receptors (overall, fat cells and brain membranes); assay type: biochemical; details: discussion, fat cell and brain data
# T1 sequence (P25099 1-326): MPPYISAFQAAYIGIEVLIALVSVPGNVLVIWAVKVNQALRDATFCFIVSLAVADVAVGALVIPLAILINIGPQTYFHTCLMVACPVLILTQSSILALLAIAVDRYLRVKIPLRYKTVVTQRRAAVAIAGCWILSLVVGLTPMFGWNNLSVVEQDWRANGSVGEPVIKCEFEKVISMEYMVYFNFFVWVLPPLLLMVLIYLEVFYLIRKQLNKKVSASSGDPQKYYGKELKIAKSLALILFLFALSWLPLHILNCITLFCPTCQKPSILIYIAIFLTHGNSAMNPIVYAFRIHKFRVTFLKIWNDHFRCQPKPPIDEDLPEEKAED
# Experimental: (§1) Human platelet, rat pheochromocytoma (PC12) cell, rat fat cell and rat cerebral cortex membranes were prepared as described (4,5,6). Adenylate cyclase activity and binding [^3 H]PIA to cerebral cortex membranes were determined essentially as described (4,5,6). KB values for the compounds were determined as described (4). […] EC50 and IC50 values for the agonists were obtained from the concentration-response curves by linear regression after logit-log transformation. KB values of the antagonists were calculated using the Schild equation KB =C/(CR-1), where C denotes the concentration of the competitor and CR the ratio of the EC50 and IC50 values in the presence and absence, respectively, of the competitor. IC50 of the compounds for inhibition of [^3 H]PIA binding to cerebral cortex membranes were transformed into Ki values as described (6).
# [2] = target: T2, A1 receptors of rat fat cells (Rattus norvegicus, UniProt P25099); assay: Antagonism of R-PIA-induced inhibition of rat fat cell adenylate cyclase activity; assay type: biochemical; details: rat fat cell membranes, result in words
# T2 sequence (P25099 1-326): T1 sequence (P25099 1-326)
# Experimental: as §1
# [3] = target: A2 receptors of human platelets (Homo sapiens, UniProt P29274); assay: Antagonism of NECA-induced stimulation of adenylate cyclase activity of human platelet membranes; assay type: biochemical; details: for antagonist potency at platelet A2 receptor: human platelet membranes, NECA-stimulated adenylate cyclase, result in words; for potency at platelet A2 receptor relative to PC12 A2 receptor: human platelets versus rat PC12 cells
# Experimental: as §1
# In these cells, A2 receptor-mediated stimulation of adenylate cyclase results in an inhibition of aggregation (5,7).
# [4] = system: A2 adenosine receptor (guinea pig taenia caecum); assay: Antagonism of adenosine agonists in isolated guinea pig taenia caecum (contractile tone); details: for antagonism of adenosine agonists in taenia caecum: guinea pig taenia caecum relaxation; for sensitization of the tissue: guinea pig taenia caecum, high concentrations
# Experimental: Taenia from the guinea pig caecum were cut into lengths of 1.5-2 cm. The tissues were suspended in a 20 ml organ bath containing de Jalon's solution that was gassed with 95% O2 + 5% CO2 and maintained at 31° C. The resting tension was 1.5 g. The contractile response was measured isotonically.
# (§2) The ability of the compounds to antagonize the effects of agonists was analyzed using modified Schild plots.
# [5] = target: T3, A1 adenosine receptor (guinea pig atrium) (Cavia porcellus, UniProt P47745); assay: Antagonism of adenosine agonists in isolated guinea pig left atrium (force of contraction); details: guinea pig atria; for antagonism of adenosine agonists in atria: result in words
# T3 construct: The left atria from male guinea pigs were isolated; from tissue; host or cells: left atria of male guinea pigs
# T3 sequence (P47745 1-326): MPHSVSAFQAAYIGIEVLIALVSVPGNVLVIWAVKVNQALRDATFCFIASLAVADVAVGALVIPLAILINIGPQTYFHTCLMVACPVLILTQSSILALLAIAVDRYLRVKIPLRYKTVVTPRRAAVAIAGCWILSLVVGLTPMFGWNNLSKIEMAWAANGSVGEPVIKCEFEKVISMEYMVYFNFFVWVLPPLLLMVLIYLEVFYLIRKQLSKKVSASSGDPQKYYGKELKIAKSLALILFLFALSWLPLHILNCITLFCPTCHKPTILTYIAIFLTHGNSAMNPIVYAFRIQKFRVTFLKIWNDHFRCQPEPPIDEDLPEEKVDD
# Experimental: The left atria from male guinea pigs were isolated, suspended between two punctate electrodes, and placed in a 20 ml organ bath that contained Krebs-Hensileit solution that was continuously gassed with 95% O2 + 5% CO2 and maintained at 31° C. The resting tension was one gram. Theatria were stimulated electrically at 1 hz, 1 ms duration pulses at supramaximal voltage. The force of contraction was recorded isometrically.
# as §2
# [6] = system: A1 and A2 adenosine receptors; assay: Activity at adenosine receptors, A1 versus A2 selectivity (overall); assay type: biochemical; details: for receptor selectivity A1 versus A2: in words; for stereoselectivity: A1 and A2 receptors
# Experimental: as §1
# Sequence of A2 receptors of human platelets (P29274 whole entry): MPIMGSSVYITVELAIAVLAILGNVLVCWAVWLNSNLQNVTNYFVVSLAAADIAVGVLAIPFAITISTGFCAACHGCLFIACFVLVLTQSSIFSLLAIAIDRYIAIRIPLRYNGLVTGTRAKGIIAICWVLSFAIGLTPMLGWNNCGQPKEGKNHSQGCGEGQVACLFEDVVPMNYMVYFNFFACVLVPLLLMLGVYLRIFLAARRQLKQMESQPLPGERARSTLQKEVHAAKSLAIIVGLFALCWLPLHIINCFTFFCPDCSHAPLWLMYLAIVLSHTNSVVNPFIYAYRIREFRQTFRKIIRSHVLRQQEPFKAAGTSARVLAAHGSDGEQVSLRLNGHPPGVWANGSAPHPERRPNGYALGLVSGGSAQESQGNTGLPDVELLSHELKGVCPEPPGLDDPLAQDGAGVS
smiles,measurement,setting,value
"CNc1ncnc2c1ncn2C [Example 7, N^6 -Methyl-9-MA]","activity at A1 receptors, in words",[1],reduces activity
same,antagonist potency at A1 receptors of fat cells,[2],less potent than 9-methyladenine
same,antagonist potency at platelet A2 receptor,[3],much less potent than 9-methyladenine
"CCC(CC)Nc1ncnc2c1ncn2C [Example 8, N^6-3-Pentyl-9-MA]",antagonism of adenosine agonists in taenia caecum,[4],did not competitively antagonize the effects of adenosine agonists
same,sensitization of the tissue,[4],some sensitization of the tissue
same,basal force of contraction in the atria,[5],increases in basal force of contraction
same,antagonism of adenosine agonists in atria,[5],competitive antagonists
same,antagonist potency at A1 receptors of fat cells,[2],more potent than the aprent compound
same,antagonist potency at platelet A2 receptor,[3],more potent
same,antagonist potency at platelet A2 receptor,[3]; listed as 3-pentyl-,enhance activity
same,potency at platelet A2 receptor relative to PC12 A2 receptor,[3],more potent at the platelet A2 receptor than at the PC12 A2 receptor
"Cn1c(=O)c2[nH]c(-c3ccccc3)nc2n(C)c1=O [Example 8-PT, 8-phenyltheophylline, reference compound]",antagonism of adenosine agonists in taenia caecum,[4],did antagonize the effects of agonists at low concentrations
same,sensitization of the tissue,[4],sensitization effect is also observed
same,receptor selectivity A1 versus A2,[6],nonselective adenosine receptor antagonist
"Cn1cnc2c(Nc3ccccc3)ncnc21 [Example 9, N^6 -Phenyl-9-MA]",antagonist potency at A1 receptors of fat cells,[2],more potent than 9-methyladenine in the fat cell
same,antagonist potency at platelet A2 receptor,[3],equipotent to 9-methyladenine
same,potency at platelet A2 receptor relative to PC12 A2 receptor,[3],more potent at the platelet A2 receptor than at the PC12 A2 receptor
"Cn1cnc2c(Nc3ccccc3F)ncnc21 [Example 10, N^6-2-Fluorophenyl-9-MA]",antagonist potency at A1 receptors of fat cells,[2],more potent than 9-methyladenine in the fat cell
same,antagonist potency at platelet A2 receptor,[3],increases potency
same,antagonist potency at platelet A2 receptor,[3]; listed as 2-fluorophenyl-,enhance activity
"Cn1cnc2c(NCc3ccccc3)ncnc21 [Example 11, N^6 -Benzyl-9-MA]","activity at A1 receptors, in words",[1],modest activity
same,antagonist potency at platelet A2 receptor,[3],less potent than 9-methyladenine
"Cn1cnc2c(NCCc3ccccc3)ncnc21 [Example 12, N^6-2-Phenethyl-9-MA]",antagonist potency at A1 receptors of fat cells,[2],much less potent
same,antagonist potency at platelet A2 receptor,[3],less potent than 9-methyladenine
COc1cc(CCNc2ncnc3c2ncn3C)cc(OC)c1OC [Example 13],antagonist potency at platelet A2 receptor,[3],as potent as 9-methyladenine
same,receptor selectivity A1 versus A2,[6],selectivity for A2 receptors
"Cn1cnc2c(NCCc3cccnc3)ncnc21 [Example 14, N^6-2-(3-Pyridylethyl)-9-MA]",antagonist potency at platelet A2 receptor,[3],less potent than 9-methyladenine
"Cn1cnc2c(NCCc3ccsc3)ncnc21 [Example 15, N^6-2-(3-Thienylethyl)-9-MA]",antagonist potency at A1 receptors of fat cells,[2],more potent than 9-methyladenine itself in the fat cell
same,antagonist potency at platelet A2 receptor,[3],somewhat more potent
same,antagonist potency at platelet A2 receptor,[3]; listed as 2-(3 -thienylethyl)-,enhance activity
"C[C@H](Cc1ccccc1)Nc1ncnc2c1ncn2C [Example 16, N^6 - -- R-1-Phenyl-2-propyl-9-MA]",antagonist potency at A1 receptors of fat cells,[2],more potent than the parent compound at A1 receptors of fat cells
same,antagonist potency at platelet A2 receptor,[3],more potent than the S-isomer
same,antagonist potency at platelet A2 receptor,[3]; listed as R-1-phenyl-2-propyl-,enhance activity
same,stereoselectivity,[6],exhibit stereoselectivity at both A1 and A2 receptors
"C[C@@H](Cc1ccccc1)Nc1ncnc2c1ncn2C [Example 17, N^6 - -- S-1-Phenyl-2-propyl-9-MA]",antagonist potency at A1 receptors of fat cells,[2],more potent than the parent compound at A1 receptors of fat cells
same,stereoselectivity,[6],exhibit stereoselectivity at both A1 and A2 receptors
CCC(Cc1cccs1)Nc1ncnc2c1ncn2C (centres unmarked) [Example 23],basal force of contraction in the atria,[5],increases in basal force of contraction
same,antagonism of adenosine agonists in atria,[5],competitive antagonists
